One may read the pIC50 as the negative decadic logarithm of the IC50, by convention in mol/L. The low end stands for a large IC50, the high end for a small IC50.

Consider five compounds from BindingDB's records for doi:10.1021/acschembio.7b00543 (University of Delaware, 2017).

pIC50: −log10 of the molar value.

Holding throughout (experiment): Fluorometric Ub-AMC Hydrolysis Assay
Conditions in all cases: pH 7.5; 25 °C

Assay [1] concerns the target T1, Ubiquitin carboxyl-terminal hydrolase 2 (Homo sapiens, UniProt O75604).
T1 sequence (O75604 whole entry): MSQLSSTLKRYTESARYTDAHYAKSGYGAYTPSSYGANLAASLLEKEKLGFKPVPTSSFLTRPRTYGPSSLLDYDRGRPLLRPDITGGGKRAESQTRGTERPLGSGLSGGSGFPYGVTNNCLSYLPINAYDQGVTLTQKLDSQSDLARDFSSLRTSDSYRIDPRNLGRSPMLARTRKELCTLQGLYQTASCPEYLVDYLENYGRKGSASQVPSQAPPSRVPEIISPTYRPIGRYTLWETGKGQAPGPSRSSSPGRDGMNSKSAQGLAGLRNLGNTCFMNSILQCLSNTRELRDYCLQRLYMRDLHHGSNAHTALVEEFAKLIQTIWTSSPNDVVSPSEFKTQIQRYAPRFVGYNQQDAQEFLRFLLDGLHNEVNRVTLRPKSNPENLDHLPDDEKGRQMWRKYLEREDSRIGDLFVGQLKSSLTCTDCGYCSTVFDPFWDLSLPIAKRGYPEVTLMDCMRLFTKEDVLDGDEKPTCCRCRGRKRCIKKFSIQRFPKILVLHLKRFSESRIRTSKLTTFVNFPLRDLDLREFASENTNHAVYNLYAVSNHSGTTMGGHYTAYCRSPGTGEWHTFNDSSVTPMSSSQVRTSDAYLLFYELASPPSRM
As to the method:
(§1) 2 nM UCHL1, UCHL5, USP15, USP2, or 2 pM UCHL3 were incubated with increasing concentrations of inhibitor in assay buffer for 5 min at room temperature. To initiate the reaction, 1 uM Ub-AMC was added and the fluorescence signal was detected for 60 s with a 380 nm excitation and 460 nm emission filter set.

Assay [2] addresses T2, Ubiquitin carboxyl-terminal hydrolase isozyme L3 (Homo sapiens, UniProt P15374).
T2 sequence (P15374 whole entry): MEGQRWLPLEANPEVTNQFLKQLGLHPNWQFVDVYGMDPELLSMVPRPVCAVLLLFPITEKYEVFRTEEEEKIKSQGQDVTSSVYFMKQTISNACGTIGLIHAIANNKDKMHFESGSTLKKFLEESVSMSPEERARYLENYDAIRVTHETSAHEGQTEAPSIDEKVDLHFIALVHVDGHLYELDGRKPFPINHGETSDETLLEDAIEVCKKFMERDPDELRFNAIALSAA
How it is done: as §1

The target of assay [3] is T3, Ubiquitin carboxyl-terminal hydrolase isozyme L5 (Homo sapiens, UniProt Q9Y5K5).
T3 sequence (Q9Y5K5 whole entry): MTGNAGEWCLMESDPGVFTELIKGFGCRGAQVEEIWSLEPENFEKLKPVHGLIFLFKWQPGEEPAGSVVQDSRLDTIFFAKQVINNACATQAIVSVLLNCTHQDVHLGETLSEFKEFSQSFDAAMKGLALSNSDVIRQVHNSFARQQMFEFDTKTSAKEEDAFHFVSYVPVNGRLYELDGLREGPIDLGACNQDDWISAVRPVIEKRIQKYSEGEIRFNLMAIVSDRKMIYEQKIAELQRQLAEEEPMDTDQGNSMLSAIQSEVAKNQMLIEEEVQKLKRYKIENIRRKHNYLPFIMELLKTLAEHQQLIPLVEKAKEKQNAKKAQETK
How it is done:
as §1

The target in assay [4] is T4, Ubiquitin carboxyl-terminal hydrolase 15 (Homo sapiens, UniProt Q9Y4E8).
T4 sequence (Q9Y4E8 whole entry): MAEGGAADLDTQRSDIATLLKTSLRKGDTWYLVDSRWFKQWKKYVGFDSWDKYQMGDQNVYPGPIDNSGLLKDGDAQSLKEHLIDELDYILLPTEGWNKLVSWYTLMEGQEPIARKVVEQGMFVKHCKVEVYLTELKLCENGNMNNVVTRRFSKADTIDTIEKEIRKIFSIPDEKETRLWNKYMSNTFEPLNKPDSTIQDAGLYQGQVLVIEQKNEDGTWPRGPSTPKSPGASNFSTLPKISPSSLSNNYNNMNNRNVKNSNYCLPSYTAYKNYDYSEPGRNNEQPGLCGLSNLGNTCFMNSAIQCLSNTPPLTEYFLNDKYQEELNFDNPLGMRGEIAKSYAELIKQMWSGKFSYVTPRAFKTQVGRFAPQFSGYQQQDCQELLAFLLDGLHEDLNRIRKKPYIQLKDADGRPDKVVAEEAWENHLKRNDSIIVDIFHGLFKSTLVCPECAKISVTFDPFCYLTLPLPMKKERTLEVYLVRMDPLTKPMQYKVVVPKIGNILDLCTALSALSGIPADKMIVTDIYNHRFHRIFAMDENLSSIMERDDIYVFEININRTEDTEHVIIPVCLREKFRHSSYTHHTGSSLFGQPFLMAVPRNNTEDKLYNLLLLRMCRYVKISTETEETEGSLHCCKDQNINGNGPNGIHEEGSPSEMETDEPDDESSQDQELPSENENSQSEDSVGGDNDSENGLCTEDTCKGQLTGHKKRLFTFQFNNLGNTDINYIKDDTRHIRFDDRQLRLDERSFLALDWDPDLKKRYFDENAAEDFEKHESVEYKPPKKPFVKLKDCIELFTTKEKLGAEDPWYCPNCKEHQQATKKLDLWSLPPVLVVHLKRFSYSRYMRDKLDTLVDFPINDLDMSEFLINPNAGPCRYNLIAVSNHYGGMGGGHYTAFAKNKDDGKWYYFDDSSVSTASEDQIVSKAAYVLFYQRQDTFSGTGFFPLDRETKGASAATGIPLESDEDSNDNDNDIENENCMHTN
How it is done:
as §1

The target in assay [5] is T5, Ubiquitin carboxyl-terminal hydrolase isozyme L1 (Homo sapiens, UniProt P09936).
T5 sequence (P09936 whole entry): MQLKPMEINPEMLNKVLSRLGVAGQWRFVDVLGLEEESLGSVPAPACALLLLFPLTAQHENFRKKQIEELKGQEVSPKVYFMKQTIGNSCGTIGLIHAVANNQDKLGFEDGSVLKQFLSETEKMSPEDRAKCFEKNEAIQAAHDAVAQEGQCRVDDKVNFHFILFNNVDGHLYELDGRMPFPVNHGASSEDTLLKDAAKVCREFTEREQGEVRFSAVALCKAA
As to the method:
as §1

As to `Cc1cnc(-c2ccccc2C(C)C)nc1NCc1ccc(-n2ccnn2)cc1`, the negative-log IC50 (pIC50) in assay [1], in assay [2] and in assay [3] was under 3.94 each time.
As to `CO[C@H]1/C=C/O[C@@]2(C)Oc3c(C)c(O)c4c(c3C2=O)C(=O)/C(=C/NN2CCN(C)CC2)C(=C4O)NC(=O)/C(C)=C\C=C\[C@H](C)[C@H](O)[C@@H](C)[C@@H](O)[C@@H](C)[C@H](OC(C)=O)[C@@H]1C` [Rifampicin], the negative-log IC50 (pIC50) in assay [4] is 4.34; in assay [1], 4.67; in assay [5] it was 4.71; in assay [2], 4.61; in assay [3], 4.20.
For the compound `CC(=O)ON=C1C(=O)N(Cc2cc(Cl)ccc2Cl)c2ccc(Cl)cc21` [5-Chloro-1-[(2,5-dichlorophenyl)methyl]-1H-indole-2,3-dione 3-(O-acetyloxime)], the figures for the pIC50 in assay [2] and in assay [3] were 4.85 and 4.79, respectively.
On to `CC1=C(O)C(=O)C=C2C1=CC=C1[C@@]2(C)CC[C@@]2(C)[C@@H]3C[C@](C)(C(=O)O)CC[C@]3(C)CC[C@]12C` [Celastrol], for which the negative-log IC50 (pIC50) in assay [4] is 4.48; in assay [1], 4.54; in assay [5], 5.17; in assay [2] it was 4.49; in assay [3], 4.25.
The corresponding values for `CC(=O)Oc1c2c(c(CC=C(C)C)c3c1C(=O)C1=C[C@@H]4CC5C(C)(C)OC(C/C=C(\C)C(=O)O)(C4=O)[C@@]15O3)OC(C)(CCC=C(C)C)C=C2` (stereo not given in full) are 4.95, 4.74, 5.27, 4.81 and 4.44.
